From patent US20250081967A1, “PESTICIDALLY ACTIVE HETEROCYCLIC DERIVATIVES WITH SULFOXIMINE CONTAINING SUBSTITUENTS” (SYNGENTA CROP PROTECTION AG, priority 2021, published 2025)

Legend:
Format in all cases: in vivo
Diabrotica balteata = assay: Activity against Diabrotica balteata (corn root worm), maize sprouts; settings: for percent effect (mortality or growth inhibition) at 200 ppm: 96 h, application rate 200 ppm, L2 larvae, 4 days after infestation, read-out: effect in at least one of the two categories (mortality or growth inhibition)
Protocol: Example B3: Activity Against Diabrotica Balteata (Corn Root Worm)
Maize sprouts placed onto an agar layer in 24-well microtiter plates were treated with aqueous test solutions prepared from 10′000 ppm DMSO stock solutions by spraying. After drying, the plates were infested with L2 larvae (6 to 10 per well). The samples were assessed for mortality and growth inhibition in comparison to untreated samples 4 days after infestation.

Myzus persicae [1] = assay: Activity against Myzus persicae (green peach aphid), systemic activity, pea seedlings; settings: Myzus persicae; for mortality at 24 ppm: 144 h, test rate 24 ppm, systemic, 6 days after placing seedlings in test solutions
Protocol: Example B5: Activity Against Myzus persicae (Green Peach Aphid) Systemic Activity
Roots of pea seedlings infested with an aphid population of mixed ages were placed directly in the aqueous test solutions prepared from 10′000 DMSO stock solutions. The samples were assessed for mortality 6 days after placing seedlings in test solutions.

Myzus persicae [2] = assay: Activity against Myzus persicae (green peach aphid), feeding/contact activity, sunflower leaf discs; settings: for mortality at 200 ppm: Myzus persicae, foliar, 144 h, application rate 200 ppm, feeding/contact, 6 days after infestation; for Mortality (%): Myzus persicae (feeding/contact)
Protocol: Example B4: Activity Against Myzus persicae (Green Peach Aphid) Feeding/Contact Activity
Sunflower leaf discs were placed on agar in a 24-well microtiter plate and sprayed with aqueous test solutions prepared from 10′000 ppm DMSO stock solutions. After drying, the leaf discs were infested with an aphid population of mixed ages. The samples were assessed for mortality 6 days after infestation.

Spodoptera littoralis = assay: Activity against Spodoptera littoralis (Egyptian cotton leaf worm), cotton leaf discs; settings: foliar, 72 h, application rate 200 ppm, L1 larvae, 3 days after infestation, read-out: control (mortality, anti-feeding effect or growth inhibition)
Method in brief: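 Cotton leaf discs on agar sprayed with aqueous test solutions made from 10′000 ppm DMSO stocks, dried, then infested with five L1 larvae. Mortality, anti-feeding and growth inhibition scored versus untreated samples 3 days after infestation; control given when any category exceeds untreated.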

Euschistus heros = assay: Activity against Euschistus heros (neotropical brown stink bug), soybean leaf; settings: 120 h, application rate 200 ppm, N-2 nymphs, 5 days after infestation, read-out: effect in at least one of the two categories (mortality or growth inhibition)
Protocol: Example B7: Activity Against Euschistus heros (Neotropical Brown Stink Bug)
Soybean leaf on agar in 24-well microtiter plates were sprayed with aqueous test solutions prepared from 10′000 ppm DMSO stock solutions. After drying the leaf were infested with N-2 nymphs. The samples were assessed for mortality and growth inhibition in comparison to untreated samples 5 days after infestation.

Bemisia tabaci = assay: Activity against Bemisia tabaci (cotton white fly), cotton leaf discs; settings: for mortality at 200 ppm: foliar, 144 h, application rate 200 ppm, adult white flies, 6 days after incubation; for Mortality (%): concentration 12.5 ppm
Protocol: Example B6: Activity Against Bemisia tabaci (Cotton White Fly)
Cotton leaf discs were placed on agar in 24-well microtiter plates and sprayed with aqueous test solutions prepared from 10′000 ppm DMSO stock solutions. After drying the leaf discs were infested with adult white flies. The samples were checked for mortality 6 days after incubation.

Plutella xylostella [3] = assay: Activity against Plutella xylostella (diamond back moth), artificial diet, L2 larvae; settings: 120 h, application rate 200 ppm, 5 days after infestation, read-out: effect in at least one of the two categories (mortality or growth inhibition)
Protocol: Example B2: Activity Against Plutella xylostella (Diamond Back Moth)
(§1) 24-well microtiter plates with artificial diet were treated with aqueous test solutions prepared from 10′000 ppm DMSO stock solutions by pipetting. After drying, the plates were infested with L2 larvae (10 to 15 per well). The samples were assessed for mortality and growth inhibition in comparison to untreated samples 5 days after infestation.

Chilo suppressalis = assay: Activity against Chilo suppressalis (striped rice stemborer), artificial diet; settings: 144 h, application rate 200 ppm, L2 larvae, 6 days after infestation
Protocol: Example B11: Activity Against Chilo suppressalis (Striped Rice Stemborer)
as §1, with “(6-8” for “(10 to 15”, “mortality, anti-feeding effect,” for “mortality”, “6” for “5”, “infestation. Control of Chilo suppressalis by a test sample is given when at least one of the categories mortality, anti-feedant effect, and growth inhibition is higher than the untreated sample.” for “infestation.”

Plutella xylostella [4] = assay: Activity against Plutella xylostella (diamond back moth), artificial diet, eggs; settings: 192 h, application rate 200 ppm, 8 days after infestation, read-out: effect in at least one of the two categories (mortality or growth inhibition)
Method in brief: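 Artificial diet in wells treated with aqueous dilutions of 10′000 ppm DMSO stocks, dried, then infested with Plutella eggs. Mortality and growth inhibition scored against untreated samples 8 days after infestation.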

| Compound | percent effect (mortality or growth inhibition) at 200 ppm (Diabrotica balteata) [%] | mortality at 24 ppm (Myzus persicae [1]) [%] | mortality at 200 ppm (Myzus persicae [2]) [%] | percent control (mortality, anti-feedant effect or growth inhibition) at 200 ppm (Spodoptera littoralis) [%] | percent effect (mortality or growth inhibition) at 200 ppm (Euschistus heros) [%] | mortality at 200 ppm (Bemisia tabaci) [%] | percent effect (mortality or growth inhibition) at 200 ppm (Plutella xylostella [3]) [%] | percent control (mortality, anti-feedant effect or growth inhibition) at 200 ppm (Chilo suppressalis) [%] | also measured |
| --- | --- | --- | --- | --- | --- | --- | --- | --- | --- |
| CCS(=N)(=O)c1cc(OC(C)(C)C#N)c(C)nc1-c1nc2cc(C(F)(F)F)cnc2n1C (racemic) [Compound P5, 2-[[5-(ethylsulfonimidoyl)-2-methyl-6-[3-methyl-6-(trifluoromethyl)imidazo[4,5-b]pyridin-2-yl]-3-pyridyl]oxy]-2-methyl-propanenitrile] | ≥ 80 | ≥ 80 | ≥ 80 | ≥ 80 | ≥ 80 | ≥ 80 | ≥ 80 | – | – |
| CCS(=N)(=O)c1cc(C2(C#N)CC2)cnc1-c1nc2cc(C(F)(F)F)n(OC)c(=O)c2n1C (racemic) [Compound P8, 1-[5-(ethylsulfonimidoyl)-6-[5-methoxy-3-methyl-4-oxo-6-(trifluoromethyl)imidazo[4,5-c]pyridin-2-yl]-3-pyridyl]cyclopropanecarbonitrile] | ≥ 80 | ≥ 80 | ≥ 80 | ≥ 80 | ≥ 80 | ≥ 80 | ≥ 80 | – | – |
| CCS(=N)(=O)c1cc(OC(C)(C)C#N)cnc1-c1nc2cc(C(F)(F)F)cnc2n1C (racemic) [Compound P9, 2-[[5-(ethylsulfonimidoyl)-6-[3-methyl-6-(trifluoromethyl)imidazo[4,5-b]pyridin-2-yl]-3-pyridyl]oxy]-2-methyl-propanenitrile] | ≥ 80 | ≥ 80 | ≥ 80 | ≥ 80 | ≥ 80 | ≥ 80 | ≥ 80 | – | – |
| CCn1c(C(F)(F)F)cc2nc(-c3ncc(C4(C#N)CC4)cc3S(=N)(=O)CC)n(C)c2c1=O (racemic) [Compound P14, 1-[6-[5-ethyl-3-methyl-4-oxo-6-(trifluoromethyl)imidazo[4,5-c]pyridin-2-yl]-5-(ethylsulfonimidoyl)-3-pyridyl]cyclopropanecarbonitrile] | ≥ 80 | ≥ 80 | ≥ 80 | ≥ 80 | ≥ 80 | ≥ 80 | ≥ 80 | – | – |
| CCn1c(C(F)(F)F)cc2nc(-c3ncc(OC(C)(C)C#N)cc3S(=N)(=O)CC)n(C)c2c1=O (racemic) [Compound P19, 2-[[6-[5-ethyl-3-methyl-4-oxo-6-(trifluoromethyl)imidazo[4,5-c]pyridin-2-yl]-5-(ethylsulfonimidoyl)-3-pyridyl]oxy]-2-methyl-propanenitrile] | ≥ 80 | ≥ 80 | ≥ 80 | ≥ 80 | ≥ 80 | ≥ 80 | ≥ 80 | – | – |
| CCS(=N)(=O)c1cc(C2(C#N)CC2)cnc1-c1nc2cc(C(F)(F)F)nnc2n1C (single isomer, unassigned) [Compound P2-A, 1-[5-(ethylsulfonimidoyl)-6-[7-methyl-3-(trifluoromethyl)imidazo[4,5-c]pyridazin-6-yl]-3-pyridyl]cyclopropanecarbonitrile] | – | ≥ 80 | ≥ 80 | – | – | ≥ 80 | – | ≥ 80 | Mortality (%) (Myzus persicae [2]; concentration 3.125 ppm): 100% |
| CCS(=N)(=O)c1cc(C2(C#N)CC2)ccc1-c1nc2cc(C(F)(F)F)cnc2n1C (single isomer, unassigned) [Compound P6-A, 1-[3-(ethylsulfonimidoyl)-4-[3-methyl-6-(trifluoromethyl)imidazo[4,5-b]pyridin-2-yl]phenyl]cyclopropanecarbonitrile] | ≥ 80 | ≥ 80 | ≥ 80 | – | – | ≥ 80 | – | ≥ 80 | mortality at 50 ppm (Diabrotica balteata; concentration 50 ppm): 80%; mortality at 6 ppm (Myzus persicae [1]; Myzus persicae (systemic), concentration 6 ppm): 80% |
| CCS(=N)(=O)c1cc(C2(C#N)CC2)cnc1-c1nc2cc(C(F)(F)F)n(OC)c(=O)c2n1C (single isomer, unassigned) [Compound P8-B, 1-[5-(ethylsulfonimidoyl)-6-[5-methoxy-3-methyl-4-oxo-6-(trifluoromethyl)imidazo[4,5-c]pyridin-2-yl]-3-pyridyl]cyclopropanecarbonitrile] | – | – | – | – | – | – | – | ≥ 80 | percent effect (mortality or growth inhibition) at 200 ppm (Plutella xylostella [4]): ≥ 80% |
| CCS(=N)(=O)c1cc(C2(C#N)CC2)cnc1-c1nc2cc(C(F)(F)F)ncc2n1C (single isomer, unassigned) [Compound P10-B, 1-[5-(ethylsulfonimidoyl)-6-[3-methyl-6-(trifluoromethyl)imidazo[4,5-c]pyridin-2-yl]-3-pyridyl]cyclopropanecarbonitrile] | – | – | – | – | – | – | – | ≥ 80 | Mortality (%) (Myzus persicae [2]; concentration 0.781 ppm): 80%; Mortality (%) (Bemisia tabaci): 100% |
| CCS(=N)(=O)c1cc(C(C)(C)C#N)cnc1-c1nc2cc(C(F)(F)F)cnc2n1C (single isomer, unassigned) [Compound P12-B, 2-[5-(ethylsulfonimidoyl)-6-[3-methyl-6-(trifluoromethyl)imidazo[4,5-b]pyridin-2-yl]-3-pyridyl]-2-methyl-propanenitrile] | – | – | – | – | – | – | – | ≥ 80 | – |
| CCS(=N)(=O)c1cc(OC(C)(C)C#N)cnc1-c1nc2cc(C(F)(F)F)ncc2n1C (single isomer, unassigned) [Compound P13-B, 2-[[5-(ethylsulfonimidoyl)-6-[3-methyl-6-(trifluoromethyl)imidazo[4,5-c]pyridin-2-yl]-3-pyridyl]oxy]-2-methyl-propanenitrile] | – | – | – | ≥ 80 | – | – | – | ≥ 80 | Mortality (%) (Diabrotica balteata; concentration 50 ppm): 100%; Mortality (%) (Myzus persicae [2]; concentration 12.5 ppm): 100% |
| CCn1c(C(F)(F)F)cc2nc(-c3ncc(C4(C#N)CC4)cc3S(=N)(=O)CC)n(C)c2c1=O (single isomer, unassigned) [Compound P14-B, 1-[6-[5-ethyl-3-methyl-4-oxo-6-(trifluoromethyl)imidazo[4,5-c]pyridin-2-yl]-5-(ethylsulfonimidoyl)-3-pyridyl]cyclopropanecarbonitrile] | – | – | – | – | – | – | – | ≥ 80 | Mortality (%) (Diabrotica balteata; concentration 50 ppm): 50% |
| CCS(=N)(=O)c1cc(C2(C#N)CC2)cnc1-c1nc2cc(C(F)(F)F)cnc2n1C (single isomer, unassigned) [Compound P16-B, 1-[5-(ethylsulfonimidoyl)-6-[3-methyl-6-(trifluoromethyl)imidazo[4,5-b]pyridin-2-yl]-3-pyridyl]cyclopropanecarbonitrile] | – | – | – | ≥ 80 | – | – | – | ≥ 80 | Mortality (%) (Myzus persicae [2]; concentration 3.125 ppm): 100%; Mortality (%) (Bemisia tabaci): 80% |
